Measurements as given in ChEMBL document CHEMBL1121942, “Sparsophenicol: a new synthetic hybrid antibiotic inhibiting ribosomal peptide synthesis” (J Med Chem, 1982).

Tests used:
Escherichia coli [1] = experiment: Tested for the inhibitory activity against N-acetyl-L-phenylalanyl tRNA-70S Escherichia coli ribosome poly-U complex; type: functional, organism-based
Escherichia coli [2] = experiment: Tested for the percent inhibition against N-acetyl-L-phenylalanyl tRNA-70S Escherichia coli ribosome poly-U complex at 3.8*10e-4M concentration; type: functional

SMILES	Ki (Escherichia coli [1]) [µM]	Inhibition (Escherichia coli [2]) [%]
COc1ccc(C[C@H](N)C(=O)N[C@H]2[C@@H](O)[C@H](n3cnc4c(N(C)C)ncnc43)O[C@@H]2CO)cc1 [PUROMYCIN]	220	
Cc1nc(O)nc(O)c1/C=C/C(=O)N(C)C	350	
Cc1nc(O)nc(O)c1/C=C/C(=O)NC(CO)C(O)c1ccc([N+](=O)[O-])cc1 (centres undefined)	3	
Cc1nc(O)nc(O)c1/C=C/C(=O)ON1C(=O)CCCC1=O		20
